The source of these data is PubChem BioAssay (NCI).

Test in all cases: DTP human tumour cell line panel, 48 h
Experiment [1] relates to OVCAR-5 ovarian.
Experiment [2] concerns MOLT-4 leukemia.
In experiment [3] the test system is MDA-MB-231 breast.
Experiment [4] deals with K-562 leukemia.
The subject of experiment [5] is COLO 205 colon.
The test system of experiment [6] is HCC-2998 colon.
For experiment [7], the system named is NCI-H460 lung.
Experiment [8] deals with KM12 colon.
Experiment [9] relates to SNB-19 CNS.
Experiment [10] relates to CCRF-CEM leukemia.
The test system of experiment [11] is HS 578T breast.
Experiment [12] has as its system SK-MEL-28 melanoma.

Several values for one entry are separate records, joined by “and”; a condition that tells them apart may be missing. Identical values can stand only once.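 Step 1: Grow cells in 96-well plates. Step 2: Expose to compound for 48 hours at 5 concentrations. Step 3: Interpolate endpoints linearly; if unreached, use highest concentration. Abbreviation: GI50, concentration required for 50% inhibition of growth. TGI: total growth inhibition.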 Where a SMILES comes first, the peptide text is derived from it. The star is where a group is joined. Fmoc = O=C(OCC1c2ccccc2-c2ccccc21)*; OtBu = CC(C)(C)O*

Turning to `CNC(=O)C(C)NC(=O)C(Cc1ccccc1)NC(=O)c1ccccc1` (stereo not drawn), the TGI in experiment [1], in experiment [2], in experiment [3], in experiment [4], in experiment [5] and in [6] was above 100 µM in each case. Moreover, the TGI in [7], in [8], in experiment [9], in experiment [10], in experiment [11] and in [12] was above 100 µM in each case.

On to `CCN1CCC(O)(c2ccc(Oc3ccc(Cl)cc3)cc2)C(C(=O)c2ccc(Oc3ccc(Cl)cc3)cc2)C1` (stereo not drawn), for which the TGI – broadly, the concentration at which net growth stops – is 26.4 µM in experiment [1]; 43.9 µM in experiment [2]; 29.4 µM in experiment [3]; above 100 µM in experiment [4]; 27.4 µM in experiment [5]; 25 µM in [6]. Besides, the TGI amounted to 14.9 µM in [7]; 14.9 µM in experiment [8]; 29.3 µM in [9]; 20.9 µM in [10]; 58.5 µM in experiment [11]; 58.6 µM in experiment [12].

For `O=C1/C(=C/c2cccc(Cl)c2)CCCc2ccccc21`, the concentration for total growth inhibition (TGI) in experiment [1] came to 31.2 µM; in experiment [2], 53.7 µM; in [3] it was 38.2 µM; in experiment [4] it was 34 µM; in experiment [5] it was 38.5 µM; in experiment [6] it was 32.5 µM. Also, the TGI was found to be 31.2 µM in experiment [7]; 32.3 µM in experiment [8]; 31.5 µM in experiment [9]; 30.4 µM in experiment [10]; 32.9 µM in experiment [11]; 33.6 µM in experiment [12].

With `Cc1ccc(C)n1-c1ccccc1C1C=Cn2c(=O)nnc3c(OC(C)C)c(OC(C)C)c(O)c1c32` (stereo not drawn), the TGI is above 100 µM in experiment [1]; 56.5 µM in experiment [2]; above 100 µM in experiment [3]; above 100 µM in experiment [4]; 27.7 µM in [5]; above 100 µM in [6]. Besides, the TGI was above 100 µM in experiment [7]; above 100 µM in experiment [8]; above 100 µM in experiment [9]; above 100 µM in experiment [10]; above 100 µM in [11]; 38.1 µM in [12].

For the molecule `COc1ccc(C(CC2(c3ccc(OC)cc3)SCCCS2)NC(C)=O)cc1` (stereo not drawn), the TGI in experiment [1] was above 100 µM; in experiment [2] it was 84.3 µM; in experiment [3], above 100 µM; in experiment [4] it was above 100 µM; in experiment [5], 56.7 µM; in experiment [6] it was above 100 µM. The TGI in [7], in experiment [8], in experiment [9], in experiment [10], in experiment [11] and in experiment [12] was above 100 µM in each case.

Consider `CC1=NN(c2nc(N)nc(CN3CCOCC3)n2)C(C)(C)C1`, for which the TGI in experiment [1], in experiment [2], in [3], in experiment [4], in experiment [5] and in experiment [6] was above 100 µM in each case. Further, the TGI was above 100 µM in experiment [7]; above 100 µM in experiment [8]; above 100 µM in experiment [9]; 90.8 µM in experiment [10]; above 100 µM in experiment [11]; above 100 µM in experiment [12].

Regarding `CN=C1Nc2ccccc2C(=O)N2CSCC12` (stereo not drawn), the TGI in [1], in experiment [2], in experiment [3], in experiment [4], in experiment [5] and in experiment [6] was above 100 µM in each case. The TGI in experiment [7], in experiment [8], in experiment [9], in experiment [10], in [11] and in experiment [12] was above 100 µM throughout.

On to `CC1OC(OC2C(OC(=O)[C@]34CCC(C)(C)C[C@H]3C3=CC[C@@H]5[C@@]6(C)CC[C@H](OC7OC(C(=O)O)C(O)C(O)C7O)C(C)(C)[C@@H]6CC[C@@]5(C)[C@]3(C)C[C@H]4O)OCC(O)C2O)C(O)C(O)C1OC1OCC(O)C(O)C1O` (stereo partly drawn), for which the TGI in experiment [1] is 28.5 µM and 23 µM; in experiment [2] it was 34.6 µM and 74.8 µM; in experiment [3], 22.3 µM and 8.24 µM; in [4] it was 35.4 µM and 36.3 µM; in experiment [5] it was 12.3 µM and 3.98 µM; in experiment [6] it was 12.7 µM and 3.07 µM. The TGI in [7] was 48.3 µM and 33.7 µM; in experiment [8] it was 22.3 µM and 14.2 µM; in [9], 25.8 µM and 23.8 µM; in experiment [10] it was 36.1 µM and 61.2 µM; in experiment [11], 39.5 µM and 39.3 µM; in [12], 29.1 µM and 22 µM. Moreover, the GI50 (usually the concentration at which growth is held to half of that of the control) in [3] was 9.19 µM and 3.49 µM; in [6] it was 4.02 µM and 1.4 µM; in experiment [8], 9.85 µM and 3.45 µM; in experiment [12], 14.9 µM and 7.34 µM.

As for `COc1cccc(/C=N/n2c(Cc3ccccc3)n[nH]c2=O)c1`, the TGI in experiment [1], in experiment [2], in experiment [3], in experiment [4], in [5] and in experiment [6] was above 100 µM each time. The TGI in [7] is above 100 µM; in [8] it was above 100 µM; in [9] it was above 100 µM; in [10], above 100 µM; in experiment [11] it was 50 µM; in experiment [12], above 100 µM.

For the molecule `CC(C)C(NC(=O)OCC1c2ccccc2-c2ccccc21)C(=O)NC(CCC(=O)OC(C)(C)C)C(=O)OC(C)(C)C` (stereo not drawn) (Fmoc-Val-Glu(OtBu)-OtBu; configuration not given here), the TGI in experiment [1] was above 100 µM; in experiment [2], above 100 µM; in [3], above 100 µM; in experiment [4] it was above 100 µM; in [5], above 31.6 µM; in experiment [6] it was above 100 µM. Also, the TGI in experiment [7], in experiment [8], in experiment [9], in [10], in [11] and in experiment [12] was above 100 µM each time.

`CCOC(=O)C(C(=O)OCC)=C1SC(=Nc2ccccc2)C(=Nc2ccccc2)N1c1ccccc1`: the TGI in experiment [1], in [2], in experiment [3], in [4], in experiment [5] and in experiment [6] was above 100 µM throughout. The TGI in experiment [7], in experiment [8], in experiment [9], in experiment [10], in experiment [11] and in experiment [12] was above 100 µM throughout.

On to `O=c1ccc2ccc(OP(=O)(O)O)cc2o1`, for which the TGI in [1], in experiment [2], in experiment [3], in [4], in experiment [5] and in experiment [6] was above 100 µM each time. Also, the TGI in experiment [7], in experiment [8], in experiment [9], in experiment [10], in [11] and in [12] was above 100 µM throughout.

For `CCOC(=O)C1(C#N)OC(=O)c2cnccc21` (stereo not drawn), the TGI in experiment [1], in [2], in [3], in [4], in experiment [5] and in experiment [6] was above 100 µM in each case. In addition, the TGI in [7], in [8], in [9], in experiment [10], in experiment [11] and in experiment [12] was above 100 µM throughout.

Turning to `COc1cc2c(cc1OC)OC(c1c(OC)ccc(OC)c1O)CC2` (stereo not drawn), the TGI in experiment [1], in [2], in experiment [3], in [4], in experiment [5] and in experiment [6] was above 100 µM in each case. Further, the TGI in [7] is above 100 µM; in experiment [8] it was above 100 µM; in [9] it was above 100 µM; in experiment [10] it was 77.8 µM; in [11], above 100 µM; in experiment [12], above 100 µM.

In the case of `Cc1cc(S(=O)(=O)NC2=NCc3nc4ccccc4n32)c(S)cc1Cl`, the TGI in [1] was 65.1 µM; in experiment [2] it was 50.2 µM; in experiment [3], 55.9 µM; in [4], above 100 µM; in [5], 34.4 µM; in experiment [6], 35.7 µM. For the same molecule, the TGI in experiment [7] is 82.4 µM; in [8], 38 µM; in experiment [9], above 100 µM; in [10] it was 86.6 µM; in [11] it was 63.3 µM; in experiment [12], above 100 µM.

`CCOC(=O)Cc1csc(NC(NC(=O)OCC)(C(=O)OCC)C(F)(F)F)n1` (stereo not drawn): the TGI in experiment [1], in experiment [2], in experiment [3], in experiment [4], in experiment [5] and in experiment [6] was above 100 µM each time. Moreover, the TGI in experiment [7], in experiment [8], in [9], in [10], in experiment [11] and in experiment [12] was above 100 µM each time.

For `COc1cc(OC)cc(OCc2nc3cc(C(F)(F)F)ccc3nc2-c2ccccc2)c1`, the TGI in experiment [1], in experiment [2], in experiment [3], in experiment [4], in [5] and in [6] was above 100 µM each time. The TGI in [7], in experiment [8], in experiment [9], in [10], in [11] and in [12] was above 100 µM each time.

As for `O=c1nc2n3c4c(cccc4nc-2c(=O)[nH]1)CCC3`, the TGI in experiment [1], in [2], in [3], in experiment [4], in experiment [5] and in [6] was above 100 µM in each case. Moreover, the TGI in [7], in experiment [8], in experiment [9], in experiment [10], in experiment [11] and in [12] was above 100 µM in each case.

On to `Cc1ccc(CC2(C(=O)O)Cc3ccc(C)cc3C2)cc1` (stereo not drawn), for which the TGI in experiment [1], in experiment [2], in [3], in experiment [4], in experiment [5] and in experiment [6] was above 100 µM throughout. Besides, the TGI in experiment [7], in experiment [8], in experiment [9], in [10], in experiment [11] and in experiment [12] was above 100 µM throughout.

For `Cc1ccc(CC(Cc2ccccc2C)C(=O)O)c(C(=O)O)c1` (stereo not drawn), the TGI in [1], in [2], in experiment [3], in experiment [4], in experiment [5] and in experiment [6] was above 100 µM each time. The TGI in [7], in experiment [8], in experiment [9], in [10], in [11] and in experiment [12] was above 100 µM each time.

For `NC(=O)C1CCCN1C(=O)C(Cc1cnc[nH]1)NC(=O)C1CCCC1` (stereo not drawn), the TGI in experiment [1], in [2], in experiment [3], in experiment [4], in experiment [5] and in experiment [6] was above 100 µM in each case. For the same molecule, the TGI in [7], in experiment [8], in [9], in experiment [10], in experiment [11] and in [12] was above 100 µM each time.

Turning to `COc1ccc2c3c1OC1C(F)C=CC4(O)C(C2)NCCC314` (stereo not drawn), the TGI in experiment [1] is 12.8 µM; in experiment [2] it was 3.76 µM; in [3] it was 12.7 µM; in [4], above 100 µM; in experiment [5] it was 3.12 µM; in experiment [6] it was 12.8 µM. Besides, the TGI is 21.4 µM in experiment [7]; 13 µM in [8]; 5.78 µM in experiment [9]; 3.91 µM in experiment [10]; 5.83 µM in [11]; 10.7 µM in [12].
